From patent publication US20190185461A1, “B[…] B2-RECEPTOR AGONIST ACTIVITY AND M3-RECEPTOR ANTAGONIST ACTIVITY AND MEDICAL USE THEREOF” (Sichuan Haisco Pharmaceutical Co., Ltd., priority 2015, published 2019)

What was measured:
[1] = biological target: T1, human muscarine receptor M3 (hM3) (Homo sapiens, UniProt P20309); assay: Inhibitory activity against human muscarine receptor M3 (aequorin luminescence, CHO cells, acetylcholine challenge); assay type: cell-based; settings: IC50 for hM3 receptor, CHO cells stably expressing hM3 and apo-Aequorin; acetylcholine chloride 112.92 nM; luminescence over 20 seconds
T1 construct: host or cells: CHO cells
Method: CHO cells (PerkinElmer, ES-212-AF) that stably express human muscarine receptor M3 (hM3) and apo-Aequorin were cultured at 37° C., 5% CO2 in Ham's F12 media (Invitrogen 12500-062) containing 10% fetal bovine serum (FBS) (Gibico 10099-141), 400 μg/mL G418 (sigma G5013) and 250 μg/mL Zeocin (Invivogen ant-zn-5p), until a confluency of 90% to 100% was reached. Cells were separated by rinsing with PBS/5 mM EDTA, collected by centrifugation, re-suspended in phenol red-free Ham's F12 media (Invitrogen 12500-062) containing 0.1 BSA (BOVOGEN BSAS 100), and counted. The cell concentration was adjusted to 1×10^6 cells/ml. 15 ml of the cell suspension was added to a 50-ml centrifuge tube, to which Coelenterazine-h (Promega 52011) was added to a final concentration of 5 μM. The tube was wrapped with a tin foil to shade light, and incubated on a rotary shaker at 20° C. for 4 hours. The cells were diluted with a phenol red-free/0.1% BSA Ham's F12 medium to a final concentration of 5.0×10^5 cells/ml, placed on a rotary shaker in low speed rotation, and incubated at room temperature for at least 1 hour. The compounds of the Examples were formulated with DMSO into 10 mM stock solutions, diluted in series with a phenol red-free/0.1% BSA Ham's F12 media (log(M): −7, −8, −9, −10, −11), and added to a 96-well plate at 50 μl/well. 50 μl cell suspension was further added to each well (25,000 cells/well) and incubated for 15 min at room temperature. The 96-well plate was placed in a microplate reader (Perkin Elmer, Envision), and a 50 μl solution of acetylcholine chloride (Sigma A6625) was added to each well at a concentration of 112.92 nM (hM3) with a microplate reader sample injector. The luminescence was recorded over 20 seconds, and IC50 values were calculated and analyzed by Origin 7.5.

[2] = biological target: T2, human β2-adrenergic receptor (hβ2) (Homo sapiens, UniProt P07550); assay: Agonist activity on human β2-adrenergic receptor (LANCE Ultra cAMP Assay, CHO cells); assay type: cell-based
T2 construct: host or cells: CHO cells
Method: The agonist activity of the compounds of the Examples on the human adrenergic receptor was measured by the LANCE Ultra cAMP Assay.
CHO cells (PerkinElmer, ES-034-AF) that stably express human adrenergic receptor (hβ2) were cultured at 37° C., 5% CO2 in MEM-alpha media (Invitrogen 12561-056) containing 10% fetal bovine serum (FBS) (Gibico 10099-141) and 250 μg/ml Zeocin (InvivoGen ant-zn-5p), until a confluency of 90% to 100% was reached. Then the agonism on cAMP was tested by using a LANCE Ultra cAMP Assay kit (PerkinElmer TRF0263). Cells were separated with PBS/5 mM EDTA, collected by centrifugation, re-suspended in Stimulation Buffer (1×HBSS, 5 mM HEPES, 0.5 mM IBMX, 0.1% BSA, pH7.4), and adjusted to a cell concentration of 6×10^5 cells/ml. The compounds of the Examples were formulated with DMSO into 10 mM stock solutions, diluted in series with Stimulation Buffer, and added to a 384-well plate at 5 μl/well. 5 μl cell suspension was further added to each well (3,000 cells/well), incubated for 30 min at room temperature, then 5 μl of a 4×Eu-cAMP trace working solution was added to each well, and then 5 μl of a 4× Ulight-anti-cAMP working solution was added to each well, followed by incubation at room temperature for 1 hour. The 384-well plate was detected for TR-FRET with a microplate reader (Perkin Elmer, Envision), and EC50 values were calculated and analyzed by Origin 7.5.

T1 sequence (P20309 whole entry): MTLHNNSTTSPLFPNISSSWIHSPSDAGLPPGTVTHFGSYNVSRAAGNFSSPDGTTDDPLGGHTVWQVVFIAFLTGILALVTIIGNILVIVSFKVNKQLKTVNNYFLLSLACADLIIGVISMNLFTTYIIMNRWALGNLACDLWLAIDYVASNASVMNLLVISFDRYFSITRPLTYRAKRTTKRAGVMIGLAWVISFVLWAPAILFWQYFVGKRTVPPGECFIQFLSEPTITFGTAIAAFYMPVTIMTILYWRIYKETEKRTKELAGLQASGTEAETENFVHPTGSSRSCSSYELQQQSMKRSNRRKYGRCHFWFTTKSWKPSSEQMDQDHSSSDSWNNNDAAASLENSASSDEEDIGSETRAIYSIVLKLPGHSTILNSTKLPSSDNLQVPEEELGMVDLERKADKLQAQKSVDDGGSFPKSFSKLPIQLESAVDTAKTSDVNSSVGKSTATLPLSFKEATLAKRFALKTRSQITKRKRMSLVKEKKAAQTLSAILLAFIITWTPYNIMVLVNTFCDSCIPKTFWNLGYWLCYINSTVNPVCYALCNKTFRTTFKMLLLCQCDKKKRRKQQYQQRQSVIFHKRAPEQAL
T2 sequence (P07550 whole entry): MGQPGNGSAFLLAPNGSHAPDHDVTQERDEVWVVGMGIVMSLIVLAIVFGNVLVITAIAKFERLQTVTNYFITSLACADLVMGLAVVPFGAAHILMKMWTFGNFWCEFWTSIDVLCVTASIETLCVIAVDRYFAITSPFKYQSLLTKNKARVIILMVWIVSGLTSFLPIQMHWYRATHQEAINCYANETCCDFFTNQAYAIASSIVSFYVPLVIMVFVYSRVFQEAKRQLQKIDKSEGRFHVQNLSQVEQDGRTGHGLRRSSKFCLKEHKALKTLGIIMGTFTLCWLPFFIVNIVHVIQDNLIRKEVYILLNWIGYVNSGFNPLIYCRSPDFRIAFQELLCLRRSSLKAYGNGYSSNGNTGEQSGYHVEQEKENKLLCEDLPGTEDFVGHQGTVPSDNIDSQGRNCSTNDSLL

Structure (SMILES) | IC50 [1] [nM] | EC50 [2] [nM]
O=C(OC1CC2(CCN(CCCn3nnc4cc(CNC[C@H](O)c5ccc(O)c6[nH]c(=O)ccc56)ccc43)CC2)C1)C(O)(c1cccs1)C1CCCC1 (single isomer, unassigned) [Isomer 1 of Compound 9, ditrifluoroacetic acid] | 2.47 | –
O=C(OC1CC2(CCN(CCCn3c(=O)oc4cc(CNC[C@H](O)c5ccc(O)c6[nH]c(=O)ccc56)ccc43)CC2)C1)C(O)(c1cccs1)c1cccs1 [Compound 8, [7-[3-[6-[[[(2R)-2-hydroxy-2-(8-hydroxy-2-oxo-1H-quinolin-5-yl)ethyl]amino]methyl]-2-oxo-1,3-benzoxazol-3-yl]propyl]-7-azaspiro[3.5]nonan-2-yl] 2-hydroxy-2,2-bis(2-thienyl)acetate; ditrifluoroacetic acid] | 0.65 | 6.13
CN(CCCn1nnc2cc(CNC[C@H](O)c3ccc(O)c4[nH]c(=O)ccc34)ccc21)C(=O)CCN1CCC2(CC1)CC(OC(=O)C(O)(c1cccs1)c1cccs1)C2 [Compound 11, [7-[3-[3-[5-[[[(2R)-2-hydroxy-2-(8-hydroxy-2-oxo-1H-quinolin-5-yl)ethyl]amino]methyl]benzotriazol-1-yl]propyl-methyl-amino]-3-oxo-propyl]-7-azaspiro[3.5]nonan-2-yl] 2-hydroxy-2,2-bis(2-thienyl)acetate; ditrifluoroacetic acid] | 0.46 | –
O=C(OC1CC2(CCN(CCCn3nnc4cc(CNC[C@H](O)c5ccc(O)c6[nH]c(=O)ccc56)ccc43)CC2)C1)C(O)(c1cccs1)c1cccs1 [Compound 1, [7-[3-[5-[[[(2R)-2-hydroxy-2-(8-hydroxy-2-oxo-1H-quinolin-5-yl)ethyl]amino]methyl]benzotriazol-1-yl]propyl]-7-azaspiro[3.5]nonan-2-yl] 2-hydroxy-2,2-bis(2-thienyl)acetate] | 0.43 | 4.45
O=C(OC1CC2(CCN(CCCn3nnc4cc(CNC[C@H](O)c5ccc(O)c(CO)c5)ccc43)CC2)C1)C(O)(c1cccs1)c1cccs1 [Compound 13, [7-[3-[5-[[[(2R)-2-hydroxy-2-[4-hydroxy-3-(hydroxymethyl)phenyl]ethyl]amino]methyl]benzotriazol-1-yl]propyl]-7-azaspiro[3.5]nonan-2-yl] 2-hydroxy-2,2-bis(2-thienyl)acetate; ditrifluoroacetic acid] | 0.31 | –
O=C(OC1CC2(CCN(CCCn3nnc4cc(CNC[C@H](O)c5ccc(O)c6[nH]c(=O)ccc56)ccc43)CC2)C1)C(O)(c1cccs1)C1CCCC1 (single isomer, unassigned) [Isomer 2 of Compound 9, ditrifluoroacetic acid] | 2.76 | –
O=C1COc2c([C@@H](O)CNCc3ccc4c(c3)nnn4CCCN3CCC4(CC3)CC(OC(=O)C(O)(c3cccs3)c3cccs3)C4)ccc(O)c2N1 [Compound 2, [7-[3-[5-[[[(2R)-2-hydroxy-2-(5-hydroxy-3-oxo-4H-1,4-benzoxazin-8-yl)ethyl]amino]methyl]benzotriazol-1-yl]propyl]-7-azaspiro[3.5]nonan-2-yl] 2-hydroxy-2,2-bis(2-thienyl)acetate; ditrifluoroacetic acid] | 0.59 | 1.3
O=C(OC1CC2(CCN(CCCn3nnc4cc(CNC[C@H](O)c5ccc(O)c6[nH]c(=O)ccc56)ccc43)CC2)C1)C(O)(c1ccccc1)C1CCCC1 (stereo partly drawn) [Compound 4, [7-[3-[5-[[[(2R)-2-hydroxy-2-(8-hydroxy-2-oxo-1H-quinolin-5-yl)ethyl]amino]methyl]benzotriazol-1-yl]propyl]-7-azaspiro[3.5]nonan-2-yl] 2-cyclopentyl-2-hydroxy-2-phenyl-acetate; ditrifluoroacetic acid] | 2.46 | –
O=C(OC1CC2(CCN(CCCn3c(=O)sc4cc(CNC[C@H](O)c5ccc(O)c6[nH]c(=O)ccc56)ccc43)CC2)C1)C(O)(c1cccs1)c1cccs1 [Compound 7, [7-[3-[6-[[[(2R)-2-hydroxy-2-(8-hydroxy-2-oxo-1H-quinolin-5-yl)ethyl]amino]methyl]-2-oxo-1,3-benzothiazol-3-yl]propyl]-7-azaspiro[3.5]nonan-2-yl] 2-hydroxy-2,2-bis(2-thienyl)acetate; ditrifluoroacetic acid] | 1.29 | 4
O=C(OC1CC2(CCN(CCCn3nnc4cc(CNC[C@H](O)c5ccc(O)c6[nH]c(=O)ccc56)ccc43)CC2)C1)C(O)(c1ccccc1)C1CCCC1 (single isomer, unassigned) [Isomer 1 of Compound 4] | 2.36 | –
O=C(OC1CC2(CCN(CCCn3nnc4cc(CNC[C@H](O)c5ccc(O)c6[nH]c(=O)sc56)ccc43)CC2)C1)C(O)(c1cccs1)c1cccs1 [Compound 12, [7-[3-[5-[[[(2R)-2-hydroxy-2-(4-hydroxy-2-oxo-3H-1,3-benzothiazol-7-yl)ethyl]amino]methyl]benzotriazol-1-yl]propyl]-7-azaspiro[3.5]nonan-2-yl] 2-hydroxy-2,2-bis(2-thienyl)acetate; ditrifluoroacetic acid] | 0.52 | 0.47
O=C(OC1CC2(CCN(CCCn3nnc4cc(CNC[C@H](O)c5ccc(O)c6[nH]c(=O)ccc56)ccc43)CC2)C1)C(O)(c1ccccc1)C1CCCC1 (single isomer, unassigned) [Isomer 2 of Compound 4] | 1.77 | –
O=CNc1cc([C@@H](O)CNCc2ccc3c(c2)nnn3CCCN2CCC3(CC2)CC(OC(=O)C(O)(c2cccs2)c2cccs2)C3)ccc1O [Compound 3, [7-[3-[5-[[[(2R)-2-(3-formamido-4-hydroxy-phenyl)-2-hydroxy-ethyl]amino]methyl]benzotriazol-1-yl]propyl]-7-azaspiro[3.5]nonan-2-yl] 2-hydroxy-2,2-bis(2-thienyl)acetate; ditrifluoroacetic acid] | 0.22 | –
